# Patent US20170127673A1, “COMPOSITIONS AND METHODS OF USE OF BETA-HYDROXY-BETA-METHYLBUTYRATE (HMB) AS AN ANIMAL FEED ADDITIVE” (Metabolic Technologies, Inc., priority 2015, published 2017)
# Marks after values point to notes of the source that are not given here.
# What was measured:
# [1] = system: Salmonella enterica subsp. enterica Serovar Enteritidis (ATCC 13076); assay: Salmonella enumeration on HMB-coated, inoculated pet food kibbles (Studies 1-3); format: cell-based
# [2] = system: Salmonella enterica subsp. enterica Serovar Enteritidis (ATCC 13076); assay: Overnight enrichment of subsamples to recover damaged Salmonella (presence/absence); format: cell-based; conditions: for Salmonella growth in enriched samples: Study 1, 0.9 and 1.5%
# Method: Enriched samples were then spread plated to XLD, incubated at 37° C. for 24 h, and growth of black colonies typical for Salmonella were noted (presence/absence result, not quantitative).
# From the coated and inoculated samples, 25 g subsamples were collected after the designated number of storage days. The 25 g subsample was mixed with 225 ml of buffered peptone water (BPW; Becton, Dickinson and Company, Franklin Lakes, N.J.) and stomached for 15 seconds to homogenize. The homogenate was serially diluted using BPW and spread plated onto Xylose Lysine Desoxycholate agar (XLD; Becton, Dickinson and Company, Franklin Lakes, N.J.) in duplicate. All inoculated XLD plates were incubated at 37° C. for 24 hours. After incubation, plates were enumerated by counting black colonies, typical for Salmonella. The number of observed colonies was multiplied by the dilution factor to determine the total count in cfu/g. Representative isolates from day 0 were confirmed as Salmonella through serotyping to ensure the recovered counts represent the inoculated culture. Counts for the positive and negative controls were also recorded. In addition, on the first sample date that counts of zero were recovered, the subsample was enriched overnight to allow damaged Salmonella cells to be recovered. Enriched samples were spread plated to XLD, incubated at 37° C. for 24 hours, and growth of black colonies typical for Salmonella were noted (presence/absence result, not quantitative).
# Based on the results from enumeration on day 1, 2, 7 and 14, the subsample was retained and enriched to allow damaged cells to be recovered. Enriched samples were spread plated to XLD.
# [3] = after HMB is fed; cited from earlier work
# [4] = healthy young or old adults; cited from earlier work
molecule,measurement,setting,value
"CC(C)(O)CC(=O)O [HMB, β-hydroxy-β-methylbutyrate]",Salmonella enumeration (limit of detection),"[1]; Study 1, both treatments (0.9 and 1.5%), day 1",< 100 cfu/g
same,Salmonella enumeration (limit of detection),"[1]; Study 1, both treatments (0.9 and 1.5%), day 2, 7 and 14",< 10 cfu/g
same,Reduction of Salmonella artificially inoculated to the kibble,"[1]; Study 1, coating at 0.9 and 1.5%, 14-day test period",effective
same,Salmonella growth in enriched samples,[2]; day 1 and 2,positive
same,Salmonella growth in enriched samples,[2]; day 7 and 14,negative
same,Loss of HMB to urine,[3],20-50%
same,Side effects,[4],no side effects
"CC(C)(O)CC(=O)O [HMBFA, β-hydroxy-β-methylbutyric acid]",Salmonella levels in coated kibbles,"[1]; Study 1, 0.9% (w:w) coating, Day 0",5.59 ± 0.22 log10 CFU/g
same,Salmonella levels in coated kibbles,"[1]; Study 1, 0.9% (w:w) coating, Day 1, below limit of detection of 100 CFU/g",0.00 ± 0^b log10 CFU/g
same,Salmonella levels in coated kibbles,"[1]; Study 1, 0.9% (w:w) coating, Day 2, below limit of detection of 10 CFU/g",0.00 ± 0^c log10 CFU/g
same,Salmonella levels in coated kibbles,"[1]; Study 1, 0.9% (w:w) coating, Day 7, below limit of detection of 10 CFU/g",0.00 ± 0^c log10 CFU/g
same,Salmonella levels in coated kibbles,"[1]; Study 1, 0.9% (w:w) coating, Day 14, below limit of detection of 10 CFU/g",0.00 ± 0^c log10 CFU/g
same,Time to elimination of Salmonella inoculated onto the kibbles,"[1]; Study 1, 0.9 and 1.5% (w:w)",≤ 24 h
same,Salmonella levels in coated kibbles,"[1]; Study 1, 1.5% (w:w) coating, Day 0",4.88 ± 0.19 log10 CFU/g
same,Salmonella levels in coated kibbles,"[1]; Study 1, 1.5% (w:w) coating, Day 1, below limit of detection of 100 CFU/g",0.00 ± 0^b log10 CFU/g
same,Salmonella levels in coated kibbles,"[1]; Study 1, 1.5% (w:w) coating, Day 2, below limit of detection of 10 CFU/g",0.00 ± 0^c log10 CFU/g
same,Salmonella levels in coated kibbles,"[1]; Study 1, 1.5% (w:w) coating, Day 7, below limit of detection of 10 CFU/g",0.00 ± 0^c log10 CFU/g
same,Salmonella levels in coated kibbles,"[1]; Study 1, 1.5% (w:w) coating, Day 14, below limit of detection of 10 CFU/g",0.00 ± 0^c log10 CFU/g
same,Salmonella levels in coated kibbles,"[1]; Study 2, 0.1% (w:w) coating, Day 0",5.61±0.19 log10 CFU/g
same,Salmonella levels in coated kibbles,"[1]; Study 2, 0.1% (w:w) coating, Day 1",3.50 ± 0.12 log10 CFU/g
same,Salmonella levels in coated kibbles,"[1]; Study 2, 0.1% (w:w) coating, Day 2",2.62 ± 0.26 log10 CFU/g
same,Salmonella levels in coated kibbles,"[1]; Study 2, 0.1% (w:w) coating, Day 7",0.87 ± 0.47 log10 CFU/g
same,Salmonella levels in coated kibbles,"[1]; Study 2, 0.1% (w:w) coating, Day 14, below limit of detection of 10 CFU/g",0.00 ± 0^b log10 CFU/g
same,Salmonella levels in coated kibbles,"[1]; Study 2, 0.3% (w:w) coating, Day 0",5.62±0.06 log10 CFU/g
same,Salmonella levels in coated kibbles,"[1]; Study 2, 0.3% (w:w) coating, Day 1",2.85 ± 0.16 log10 CFU/g
same,Salmonella levels in coated kibbles,"[1]; Study 2, 0.3% (w:w) coating, Day 2",1.63 ± 0.32 log10 CFU/g
same,Salmonella levels in coated kibbles,"[1]; Study 2, 0.3% (w:w) coating, Day 7",0.67 ± 0.33 log10 CFU/g
same,Salmonella levels in coated kibbles,"[1]; Study 2, 0.3% (w:w) coating, Day 14, below limit of detection of 10 CFU/g",0.00 ± 0^b log10 CFU/g
same,Salmonella levels in coated kibbles,"[1]; Study 2, 0.5% (w:w) coating, Day 0",5.60±0.26 log10 CFU/g
same,Salmonella levels in coated kibbles,"[1]; Study 2, 0.5% (w:w) coating, Day 1",2.09 ± 0.28 log10 CFU/g
same,Salmonella levels in coated kibbles,"[1]; Study 2, 0.5% (w:w) coating, Day 2",0.93 ± 0.52 log10 CFU/g
same,Salmonella levels in coated kibbles,"[1]; Study 2, 0.5% (w:w) coating, Day 7, below limit of detection of 10 CFU/g",0.00 ± 0^b log10 CFU/g
same,Salmonella levels in coated kibbles,"[1]; Study 2, 0.5% (w:w) coating, Day 14, below limit of detection of 10 CFU/g",0.00 ± 0^b log10 CFU/g
same,Salmonella enumeration (limit of detection),"[1]; Study 2, 0.5% treatment, days 2, 7 and 14",< 10 CFU/g
same,Lowest coating level effective in eliminating the Salmonella inoculum,"[1]; Study 2, by day 14",around 0.1 % (w:w)
same,Salmonella enumeration (limit of detection),"[1]; Study 2, day 14 across all treatments",< 10 CFU/g
same,Salmonella growth in enriched subsamples,"[2]; Study 2, treatment levels below limit of detection on enumeration days 2, 7 and 14",positive
calcium β-hydroxy-β-methylbutyrate [CaHMB],Salmonella levels in coated kibbles,"[1]; Study 3, 0.1% (w:w) powder coating, Day 0",7.19±0.04 log10 CFU/g
same,Salmonella levels in coated kibbles,"[1]; Study 3, 0.1% (w:w) powder coating, Day 1",7.11 ± 0.08 log10 CFU/g
same,Salmonella levels in coated kibbles,"[1]; Study 3, 0.1% (w:w) powder coating, Day 2",6.84 ± 0.17 log10 CFU/g
same,Salmonella levels in coated kibbles,"[1]; Study 3, 0.1% (w:w) powder coating, Day 7",3.18 ± 0.03^ log10 CFU/g
same,Salmonella levels in coated kibbles,"[1]; Study 3, 0.1% (w:w) powder coating, Day 14, below limit of detection of 10 CFU/g",0 ± 0^b log10 CFU/g
same,Salmonella levels in coated kibbles,"[1]; Study 3, 0.3% (w:w) powder coating, Day 0",7.17±0.07 log10 CFU/g
same,Salmonella levels in coated kibbles,"[1]; Study 3, 0.3% (w:w) powder coating, Day 1",7.01 ± 0.07 log10 CFU/g
same,Salmonella levels in coated kibbles,"[1]; Study 3, 0.3% (w:w) powder coating, Day 2",6.26 ± 0.03 log10 CFU/g
same,Salmonella levels in coated kibbles,"[1]; Study 3, 0.3% (w:w) powder coating, Day 7",3.17 ± 0.04^ log10 CFU/g
same,Salmonella levels in coated kibbles,"[1]; Study 3, 0.3% (w:w) powder coating, Day 14, below limit of detection of 10 CFU/g",0 ± 0^b log10 CFU/g
same,Salmonella levels in coated kibbles,"[1]; Study 3, 0.5% (w:w) powder coating, Day 0",7.09±0.04 log10 CFU/g
same,Salmonella levels in coated kibbles,"[1]; Study 3, 0.5% (w:w) powder coating, Day 1",6.15 ± 0.11 log10 CFU/g
same,Salmonella levels in coated kibbles,"[1]; Study 3, 0.5% (w:w) powder coating, Day 2",5.87 ± 0.20 log10 CFU/g
same,Salmonella levels in coated kibbles,"[1]; Study 3, 0.5% (w:w) powder coating, Day 7, below limit of detection of 10 CFU/g",0 ± 0^b log10 CFU/g
same,Salmonella levels in coated kibbles,"[1]; Study 3, 0.5% (w:w) powder coating, Day 14, below limit of detection of 10 CFU/g",0 ± 0^b log10 CFU/g
same,Salmonella enumeration counts,"[1]; Study 3, 0.5, 0.9 and 1.5% coated kibbles, day 7",below the limit of detection
same,Salmonella levels in coated kibbles,"[1]; Study 3, 0.9% (w:w) powder coating, Day 0",7.08±0.12 log10 CFU/g
same,Salmonella levels in coated kibbles,"[1]; Study 3, 0.9% (w:w) powder coating, Day 1",6.27 ± 0.06 log10 CFU/g
same,Salmonella levels in coated kibbles,"[1]; Study 3, 0.9% (w:w) powder coating, Day 2",6.03 ± 0.05 log10 CFU/g
same,Salmonella levels in coated kibbles,"[1]; Study 3, 0.9% (w:w) powder coating, Day 7, below limit of detection of 10 CFU/g",0 ± 0^b log10 CFU/g
same,Salmonella levels in coated kibbles,"[1]; Study 3, 0.9% (w:w) powder coating, Day 14, below limit of detection of 10 CFU/g",0 ± 0^b log10 CFU/g
same,Salmonella levels in coated kibbles,"[1]; Study 3, 1.5% (w:w) powder coating, Day 0",7.04±0.13 log10 CFU/g
same,Salmonella levels in coated kibbles,"[1]; Study 3, 1.5% (w:w) powder coating, Day 1",6.24 ± 0.07 log10 CFU/g
same,Salmonella levels in coated kibbles,"[1]; Study 3, 1.5% (w:w) powder coating, Day 2",5.87 ± 0.09 log10 CFU/g
same,Salmonella levels in coated kibbles,"[1]; Study 3, 1.5% (w:w) powder coating, Day 7, below limit of detection of 10 CFU/g",0 ± 0^b log10 CFU/g
same,Salmonella levels in coated kibbles,"[1]; Study 3, 1.5% (w:w) powder coating, Day 14, below limit of detection of 10 CFU/g",0 ± 0^b log10 CFU/g
same,Salmonella enumeration counts (limit of detection),"[1]; Study 3, all treated kibbles, day 14",< 10 CFU/g
same,Attenuation of Salmonella on kibbles,"[1]; Study 3, powdered form, lower levels eliminating after 14 days, higher levels during first week",very effective
same,Salmonella growth in enriched subsamples,"[2]; Study 3, days 7 and 14 for 0.5, 0.9, 1.5%, day 14 for 0.1 and 0.3%",no Salmonella growth
